Source: ChEMBL document CHEMBL1201862, “PubChem BioAssay data set” (2004)
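Five compound concentrations were applied to cells in 96-well plates for 48 hours; endpoints were derived by simple linear interpolation of the resulting dose-response curve. GI50 = concentration required for 50% inhibition of growth.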 The source made the active and inactive calls. Rule as the data show it: active = GI50 up to about 1.1 µM and inactive = higher.

Columns and labels:
Test in all cases: growth of human tumour cells (NCI), 48 h
DLD-1 = test system: DLD-1
A549 = test system: A549
SK-OV-3 = test system: SK-OV-3
TK-10 = test system: TK-10
NCI-H522 = test system: NCI-H522
SF-295 = test system: SF-295
A498 = test system: A498
Malme-3M = test system: Malme-3M
UO-31 = test system: UO-31
OVCAR-4 = test system: OVCAR-4
KM-20L2 = test system: KM-20L2
COLO 205 = test system: COLO 205
M14 = test system: M14
OVCAR-8 = test system: OVCAR-8
MOLT-4 = test system: MOLT-4
LOX IMVI = test system: LOX IMVI
UACC-62 = test system: UACC-62
NCI-H226 = test system: NCI-H226
HOP-18 = test system: HOP-18
UACC-257 = test system: UACC-257
RPMI-8226 = test system: RPMI-8226
M19-MEL = test system: M19-MEL
SW-620 = test system: SW-620
CAKI-1 = test system: CAKI-1
EKVX = test system: EKVX
SK-MEL-5 = test system: SK-MEL-5
SNB-75 = test system: SNB-75
KM12 = test system: KM12
HL-60 = test system: HL-60
CCRF-CEM = test system: CCRF-CEM
OVCAR-5 = test system: OVCAR-5
SK-MEL-2 = test system: SK-MEL-2
786-0 = test system: 786-0
XF498 = test system: XF498
SF-539 = test system: SF-539
OVCAR-3 = test system: OVCAR-3
HOP-92 = test system: HOP-92
HCT-15 = test system: HCT-15
NCI-H460 = test system: NCI-H460
DMS-273 = test system: DMS-273
HCT-116 = test system: HCT-116
LXFL 529 = test system: LXFL 529
SK-MEL-28 = test system: SK-MEL-28
NCI-H23 = test system: NCI-H23
SNB-78 = test system: SNB-78
SF-268 = test system: SF-268
IGROV-1 = test system: IGROV-1
K562 = test system: K562
RXF 393 = test system: RXF 393
SN12C = test system: SN12C
ACHN = test system: ACHN
HT-29 = test system: HT-29
HCC 2998 = test system: HCC 2998
U-251 = test system: U-251
SNB-19 = test system: SNB-19
HOP-62 = test system: HOP-62
SR = test system: SR
DMS-114 = test system: DMS-114

Compound: O=C(Nc1nc2ncn(CCNCCn3cnc4nc(NC(=O)c5ccccc5)[nH]c(=O)c43)c2c(=O)[nH]1)c1ccccc1
- GI50 (DLD-1): > 100 µM (inactive)
- GI50 (A549): > 100 µM (inactive)
- GI50 (SK-OV-3): > 100 µM (inactive)
- GI50 (TK-10): > 100 µM (inactive)
- GI50 (NCI-H522): > 100 µM (inactive)
- GI50 (SF-295): > 100 µM (inactive)
- GI50 (A498): > 100 µM (inactive)
- GI50 (Malme-3M): > 100 µM (inactive)
- GI50 (UO-31): > 100 µM (inactive)
- GI50 (OVCAR-4): > 100 µM (inactive)
- GI50 (KM-20L2): > 100 µM (inactive)
- GI50 (COLO 205): > 100 µM (inactive)
- GI50 (M14): > 100 µM (inactive)
- GI50 (OVCAR-8): > 100 µM (inactive)
- GI50 (MOLT-4): > 100 µM (inactive)
- GI50 (LOX IMVI): > 100 µM (inactive)
- GI50 (UACC-62): > 100 µM (inactive)
- GI50 (NCI-H226): > 100 µM (inactive)
- GI50 (HOP-18): > 100 µM (inactive)
- GI50 (UACC-257): > 100 µM (inactive)
- GI50 (RPMI-8226): > 100 µM (inactive)
- GI50 (M19-MEL): > 100 µM (inactive)
- GI50 (SW-620): > 100 µM (inactive)
- GI50 (CAKI-1): > 100 µM (inactive)
- GI50 (EKVX): > 100 µM (inactive)
- GI50 (SK-MEL-5): > 100 µM (inactive)
- GI50 (SNB-75): > 100 µM (inactive)
- GI50 (KM12): > 100 µM (inactive)
- GI50 (HL-60): > 100 µM (inactive)
- GI50 (CCRF-CEM): > 100 µM (inactive)
- GI50 (OVCAR-5): > 100 µM (inactive)
- GI50 (SK-MEL-2): > 100 µM (inactive)
- GI50 (786-0): > 100 µM (inactive)
- GI50 (XF498): > 100 µM (inactive)
- GI50 (SF-539): > 100 µM (inactive)
- GI50 (OVCAR-3): > 100 µM (inactive)
- GI50 (HOP-92): > 100 µM (inactive)
- GI50 (HCT-15): > 100 µM
- GI50 (NCI-H460): > 100 µM (inactive)
- GI50 (DMS-273): > 100 µM (inactive)
- GI50 (HCT-116): > 100 µM (inactive)
- GI50 (LXFL 529): > 100 µM (inactive)
- GI50 (SK-MEL-28): > 100 µM (inactive)
- GI50 (NCI-H23): > 100 µM (inactive)
- GI50 (SNB-78): > 100 µM (inactive)
- GI50 (SF-268): > 100 µM (inactive)
- GI50 (IGROV-1): > 100 µM (inactive)
- GI50 (K562): > 100 µM (inactive)
- GI50 (RXF 393): > 100 µM (inactive)
- GI50 (SN12C): > 100 µM (inactive)
- GI50 (ACHN): > 100 µM (inactive)
- GI50 (HT-29): > 100 µM (inactive)
- GI50 (HCC 2998): > 100 µM (inactive)
- GI50 (U-251): > 100 µM (inactive)
- GI50 (SNB-19): > 100 µM (inactive)
- GI50 (HOP-62): > 100 µM (inactive)

Compound: O=C(CSc1nnc(-c2ccc(/N=C\c3ccc(Cl)cc3)cc2)o1)Nc1cccc(Cl)c1
- GI50 (A549): > 100 µM (inactive)
- GI50 (SK-OV-3): > 100 µM (inactive)
- GI50 (TK-10): > 100 µM (inactive)
- GI50 (NCI-H522): 36.1 µM (inactive)
- GI50 (SF-295): > 100 µM (inactive)
- GI50 (Malme-3M): > 100 µM (inactive)
- GI50 (UO-31): > 100 µM (inactive)
- GI50 (OVCAR-4): > 100 µM (inactive)
- GI50 (KM-20L2): > 100 µM (inactive)
- GI50 (COLO 205): > 100 µM (inactive)
- GI50 (M14): > 100 µM (inactive)
- GI50 (OVCAR-8): > 100 µM (inactive)
- GI50 (MOLT-4): > 100 µM (inactive)
- GI50 (LOX IMVI): > 100 µM (inactive)
- GI50 (UACC-62): > 100 µM (inactive)
- GI50 (NCI-H226): > 100 µM (inactive)
- GI50 (HOP-18): > 100 µM (inactive)
- GI50 (UACC-257): > 100 µM (inactive)
- GI50 (SR): > 100 µM (inactive)
- GI50 (RPMI-8226): 70 µM (inactive)
- GI50 (M19-MEL): > 100 µM (inactive)
- GI50 (SW-620): > 100 µM (inactive)
- GI50 (EKVX): > 100 µM (inactive)
- GI50 (SK-MEL-5): > 100 µM (inactive)
- GI50 (SNB-75): > 100 µM (inactive)
- GI50 (KM12): > 100 µM (inactive)
- GI50 (HL-60): > 100 µM (inactive)
- GI50 (CCRF-CEM): > 100 µM (inactive)
- GI50 (SK-MEL-2): > 100 µM (inactive)
- GI50 (786-0): > 100 µM (inactive)
- GI50 (XF498): > 100 µM (inactive)
- GI50 (HCT-15): > 100 µM
- GI50 (NCI-H460): > 100 µM (inactive)
- GI50 (DMS-273): > 100 µM (inactive)
- GI50 (HCT-116): > 100 µM (inactive)
- GI50 (LXFL 529): > 100 µM (inactive)
- GI50 (SK-MEL-28): > 100 µM (inactive)
- GI50 (NCI-H23): > 100 µM (inactive)
- GI50 (SNB-78): > 100 µM (inactive)
- GI50 (SF-268): > 100 µM (inactive)
- GI50 (K562): > 100 µM (inactive)
- GI50 (RXF 393): 80.5 µM (inactive)
- GI50 (SN12C): > 100 µM (inactive)
- GI50 (ACHN): > 100 µM (inactive)
- GI50 (HT-29): > 100 µM (inactive)
- GI50 (DMS-114): > 100 µM (inactive)
- GI50 (U-251): > 100 µM (inactive)
- GI50 (SNB-19): > 100 µM (inactive)
- GI50 (HOP-62): > 100 µM (inactive)
